ChEMBL document CHEMBL1201862, “PubChem BioAssay data set” (2004)
The source made the active and inactive calls.

How the values were obtained:
[1] = A Cell Based Secondary Assay To Explore Cytotoxicity of Compounds that Sensitize Mycobacterium Tuberculosis to Beta-Lactam Antibiotics.; type: functional
Paired box protein Pax-8 = Paired box protein Pax-8 (Homo sapiens, UniProt Q06710); assay: inhibitors of PAX8-driven TPO luciferase reporter, dose response, RMG-I cells, cherry-pick (AID 687027); type: functional, cell-based;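 note: luciferase reporter driven by Pax8 target thyroperoxidase promoter measured by SteadyGlo luminescence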
[2] = inhibitors of CMV-promoter luciferase reporter, dose response, counter-screen for Pax8 inhibitor project, cell-based, HEK293, luminescence, dry powder (AID 743020); type: functional
[3] = HepG2 cell cytotoxicity, dose response, cytotoxicity control, plate reader, cherry-pick, antagonist series (AID 743416); type: functional, cell-based
[4] = HEK293 cell cytotoxicity, dose response, cytotoxicity control, plate reader, cherry-picked samples (AID 743446); type: functional, cell-based
[5] = molecular target: T1, Heat shock factor protein 1 (Mus musculus, UniProt P38532); assay: inhibition of MG132-induced HSE-luciferase signal, confirmation, cell-based, NIH3T3, luminescence, dose retest (AID 2382); type: functional;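 note: NIH3T3 fibroblasts with HSF1-driven luciferase reporter stressed by proteasome inhibitor MG132; luminescence from HSF1-driven luciferase expression after 8 hours of MG132 stress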
T1 sequence (P38532 whole entry): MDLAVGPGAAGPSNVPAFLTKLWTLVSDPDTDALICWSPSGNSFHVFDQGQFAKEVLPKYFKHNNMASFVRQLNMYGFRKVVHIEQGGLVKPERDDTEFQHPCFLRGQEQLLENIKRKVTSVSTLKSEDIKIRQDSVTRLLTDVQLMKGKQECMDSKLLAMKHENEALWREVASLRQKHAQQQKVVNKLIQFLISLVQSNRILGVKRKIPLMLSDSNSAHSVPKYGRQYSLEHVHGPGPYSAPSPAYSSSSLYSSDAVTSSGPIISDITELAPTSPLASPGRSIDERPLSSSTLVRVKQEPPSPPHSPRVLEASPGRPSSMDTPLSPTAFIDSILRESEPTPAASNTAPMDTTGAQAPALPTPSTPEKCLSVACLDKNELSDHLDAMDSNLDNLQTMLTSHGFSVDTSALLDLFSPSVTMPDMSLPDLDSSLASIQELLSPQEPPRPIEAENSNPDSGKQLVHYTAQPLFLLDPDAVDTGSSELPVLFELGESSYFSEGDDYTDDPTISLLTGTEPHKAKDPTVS

[6] = non-specific cell cytotoxicity, dose response, cytotoxicity control for PAX8 inhibitor project, plate reader, dry powder samples (AID 743021); type: functional, cell-based
[7] = cytotoxicity in HEK-293T cells, dose response, cytotoxicity control for BCR NF-kB inhibitor project, luminescence, B-cell screen hits (AID 489021); type: functional, cell-based;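 note: HEK-293T cells carrying an NF-kB luciferase reporter; cells exposed to compound for about 14 hours before viability readout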
[8] = LGR2 antagonists, dose response, cell-based, HEK293, CRE-luciferase reporter, cherry pick, set 2 (AID 743343); type: functional;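 note: transfected cells were stimulated with diluted bursicon conditioned medium after compound addition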
[9] = A549 cell cytotoxicity, dose response, cytotoxicity control, plate reader, cherry-pick, antagonist series (AID 743412); type: functional, cell-based
HEK293 = assay: inhibitors of LMP1-driven NF-kB reporter, dose response, cell-based, HEK293, luciferase, cherry-pick (AID 588343); type: functional; settings: Homo sapiens
[10] = Luminescence-based counterscreen assay for KLF5 inhibitors: dose response cell-based high throughput screening assay to identify cytotoxic compounds using the IEC-6 intestinal epithelial cell line. [Related pubchem assays: 1700 (Primary screen.), 1834 (Confirmation screen.), 1858 (Summary AID.), 1905 (Counterscreen.)]; type: functional
[11] = microbe, parasite or virus in culture; type: functional; settings: Mycobacterium tuberculosis
[12] = MC4R antagonists, dose response, counter-screen for LGR2 antagonist project, cell-based, plate reader, cherry pick (AID 743444); type: functional;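 note: transfected HEK 293 cells stimulated with alpha-MSH peptide; potency of inhibitors of the alpha-MSH evoked signal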
[13] = molecular target: T2, Apoptotic protease-activating factor 1 (Homo sapiens, UniProt O14727); type: functional
T2 sequence (O14727 whole entry): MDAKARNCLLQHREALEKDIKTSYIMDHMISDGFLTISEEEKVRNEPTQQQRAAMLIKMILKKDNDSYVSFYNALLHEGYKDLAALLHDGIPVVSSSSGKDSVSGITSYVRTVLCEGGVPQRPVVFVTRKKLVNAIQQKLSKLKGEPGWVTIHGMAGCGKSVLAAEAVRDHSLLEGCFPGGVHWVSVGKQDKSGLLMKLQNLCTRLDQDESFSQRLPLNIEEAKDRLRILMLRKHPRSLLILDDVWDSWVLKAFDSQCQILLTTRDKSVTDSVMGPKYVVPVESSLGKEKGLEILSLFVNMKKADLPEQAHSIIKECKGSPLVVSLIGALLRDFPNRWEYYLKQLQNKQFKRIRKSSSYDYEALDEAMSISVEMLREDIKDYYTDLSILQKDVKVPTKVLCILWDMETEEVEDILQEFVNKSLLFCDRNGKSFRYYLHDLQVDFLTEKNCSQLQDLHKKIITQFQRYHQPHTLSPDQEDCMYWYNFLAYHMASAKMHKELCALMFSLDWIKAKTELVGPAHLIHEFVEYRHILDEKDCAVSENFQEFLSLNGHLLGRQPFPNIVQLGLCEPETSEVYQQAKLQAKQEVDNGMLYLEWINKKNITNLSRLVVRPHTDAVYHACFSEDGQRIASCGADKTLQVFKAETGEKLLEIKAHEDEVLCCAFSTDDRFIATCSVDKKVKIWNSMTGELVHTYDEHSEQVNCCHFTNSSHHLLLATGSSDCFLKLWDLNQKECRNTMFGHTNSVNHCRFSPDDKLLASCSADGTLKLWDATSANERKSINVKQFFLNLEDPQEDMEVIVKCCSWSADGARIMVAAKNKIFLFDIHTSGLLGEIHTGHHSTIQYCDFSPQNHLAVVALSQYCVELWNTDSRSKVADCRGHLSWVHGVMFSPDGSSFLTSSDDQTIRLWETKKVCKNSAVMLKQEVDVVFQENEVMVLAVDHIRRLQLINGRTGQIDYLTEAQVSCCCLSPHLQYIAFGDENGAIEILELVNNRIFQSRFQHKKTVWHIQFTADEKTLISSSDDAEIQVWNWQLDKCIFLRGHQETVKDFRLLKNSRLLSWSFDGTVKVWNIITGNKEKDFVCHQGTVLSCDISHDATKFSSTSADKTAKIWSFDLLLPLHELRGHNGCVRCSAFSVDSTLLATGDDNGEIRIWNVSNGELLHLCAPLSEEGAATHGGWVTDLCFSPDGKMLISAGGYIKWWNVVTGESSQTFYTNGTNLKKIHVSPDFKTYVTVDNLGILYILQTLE

[14] = molecular target: T3, Ubiquitin-conjugating enzyme E2 N (Homo sapiens, UniProt P61088); type: functional;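 note: Dose-response confirmation in a TR-FRET assay detecting UBC13-driven polyubiquitin chain formation, inhibition measured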
T3 sequence (P61088 whole entry): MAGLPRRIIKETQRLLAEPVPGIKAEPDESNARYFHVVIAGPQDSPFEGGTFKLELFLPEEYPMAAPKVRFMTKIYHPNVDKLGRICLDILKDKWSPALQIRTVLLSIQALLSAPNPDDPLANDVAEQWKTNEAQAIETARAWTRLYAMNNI

[15] = molecular target: T4, Neuropeptide Y receptor type 2 (Homo sapiens, UniProt P49146); type: functional, cell-based;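 note: HEK293 cells expressing the receptor and a CNG channel; stimulus was NPY near EC95 followed by isoproterenol to raise cAMP; antagonist potency measured as restoring cAMP signal that NPY suppresses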
T4 sequence (P49146 whole entry): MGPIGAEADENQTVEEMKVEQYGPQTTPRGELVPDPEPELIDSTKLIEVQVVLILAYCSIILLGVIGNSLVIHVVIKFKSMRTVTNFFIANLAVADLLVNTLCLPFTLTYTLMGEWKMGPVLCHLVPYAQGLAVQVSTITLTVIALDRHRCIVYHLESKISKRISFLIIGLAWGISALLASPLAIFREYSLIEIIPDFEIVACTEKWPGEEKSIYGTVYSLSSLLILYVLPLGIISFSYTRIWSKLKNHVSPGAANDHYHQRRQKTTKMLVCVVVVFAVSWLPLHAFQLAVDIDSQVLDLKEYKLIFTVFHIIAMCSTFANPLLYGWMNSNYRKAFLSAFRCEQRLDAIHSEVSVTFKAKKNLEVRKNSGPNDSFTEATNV

[16] = cytotoxicity in HPDE-C7 cells, cell-based, fluorescence, HTS (AID 430); type: functional; settings: Homo sapiens
[17] = half-maximal inhibitory concentration for glucagon-like peptide-1 release, STC-1 cell line, dose-response (AID 1117345); type: functional, cell-based
[18] = molecular target: T5, Aryl hydrocarbon receptor (Homo sapiens, UniProt P35869); settings: Potency;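 note: confirmatory quantitative high-throughput screen measuring activation of the AhR signaling pathway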
T5 sequence (P35869 whole entry): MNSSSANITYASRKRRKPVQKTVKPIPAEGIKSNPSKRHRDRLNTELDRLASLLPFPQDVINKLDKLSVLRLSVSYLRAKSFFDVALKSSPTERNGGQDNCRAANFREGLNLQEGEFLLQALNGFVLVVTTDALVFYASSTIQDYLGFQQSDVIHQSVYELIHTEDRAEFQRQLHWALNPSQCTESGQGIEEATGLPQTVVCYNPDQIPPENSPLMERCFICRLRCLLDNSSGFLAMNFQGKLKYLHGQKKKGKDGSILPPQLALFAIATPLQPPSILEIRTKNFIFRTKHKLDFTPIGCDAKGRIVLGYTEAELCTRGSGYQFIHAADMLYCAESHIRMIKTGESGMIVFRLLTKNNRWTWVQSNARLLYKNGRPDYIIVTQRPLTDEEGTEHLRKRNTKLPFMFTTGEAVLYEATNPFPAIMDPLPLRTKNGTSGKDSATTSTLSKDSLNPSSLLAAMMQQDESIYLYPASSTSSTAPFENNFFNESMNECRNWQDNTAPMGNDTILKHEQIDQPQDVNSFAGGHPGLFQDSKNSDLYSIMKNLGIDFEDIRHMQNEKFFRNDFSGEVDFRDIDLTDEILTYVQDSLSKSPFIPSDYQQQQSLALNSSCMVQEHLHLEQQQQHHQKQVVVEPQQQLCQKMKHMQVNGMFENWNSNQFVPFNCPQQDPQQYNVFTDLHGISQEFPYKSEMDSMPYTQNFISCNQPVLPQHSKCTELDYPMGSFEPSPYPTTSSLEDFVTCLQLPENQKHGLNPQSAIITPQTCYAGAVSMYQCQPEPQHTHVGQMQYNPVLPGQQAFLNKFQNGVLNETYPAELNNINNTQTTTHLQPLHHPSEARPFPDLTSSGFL

[19] = Glucagon-like peptide 1 release potency, NCI-H716 cell line, dose-response, half-maximal inhibitory concentration (AID 1117344); type: functional, cell-based
[20] = cytotoxicity in KRAS-transformed pancreatic duct cells, primary screen, cell-based, fluorescence, HTS (AID 431); type: functional; settings: Homo sapiens;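 note: cell line used: HPDE-C7K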
[21] = molecular target: Heat shock protein HSP 90-alpha (Homo sapiens, UniProt P07900); type: functional, organism-based

Paired box protein Pax-8, sequence (Q06710 whole entry): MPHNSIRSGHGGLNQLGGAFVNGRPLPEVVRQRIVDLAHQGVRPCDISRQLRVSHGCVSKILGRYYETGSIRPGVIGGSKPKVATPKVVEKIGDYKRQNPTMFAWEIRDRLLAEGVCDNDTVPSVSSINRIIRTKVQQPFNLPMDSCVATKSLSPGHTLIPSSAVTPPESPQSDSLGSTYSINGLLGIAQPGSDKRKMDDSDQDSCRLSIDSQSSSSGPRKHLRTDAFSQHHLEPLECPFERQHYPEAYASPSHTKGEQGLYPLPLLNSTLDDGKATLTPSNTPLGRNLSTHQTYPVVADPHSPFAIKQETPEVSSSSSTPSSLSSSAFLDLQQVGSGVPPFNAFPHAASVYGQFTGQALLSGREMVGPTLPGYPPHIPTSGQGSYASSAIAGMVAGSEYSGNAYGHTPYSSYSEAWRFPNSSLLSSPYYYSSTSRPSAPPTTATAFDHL

Compound: CC(C)CC(=O)N1CCN(c2ccc([N+](=O)[O-])c(NCc3ccccc3)c2)CC1
- CC50 [1]: > 40 µM (active)

Compound: COc1ccc(OCc2cccc(C(=O)Nn3cc([N+](=O)[O-])cn3)c2)cc1
- AC50 (Paired box protein Pax-8): 1.13 µM (active)
- AC50 [2]: 21 µM (active)
- AC50 [3]: 34.1 µM (active)
- AC50 [4]: > 52 µM (inactive)
- EC50 [5]: 4.92 µM (active)
- AC50 [6]: 10.1 µM (active)
- IC50 [7]: > 80 µM (inactive)
- AC50 [8]: 0.407 µM (active)
- AC50 [9]: > 52 µM (inactive)
- AC50 (HEK293): 0.709 µM (active)
- IC50 [10]: > 39.8 µM (not active)
- CC50 [11]: > 40 µM (active)
- AC50 [12]: 0.462 µM (active)

Compound: Cc1nn(-c2ccccc2)c(O)c1/C=N/NC(=O)c1cccc([N+](=O)[O-])c1
- CC50 [1]: 7.57 µM (active)
- IC50 [13]: 13.2 µM (active)

Compound: Clc1ccc(COC(Cn2ccnc2)c2ccc(Cl)cc2Cl)cc1 (centres undefined) [ECONAZOLE NITRATE]
- IC50 [14]: > 20 µM (inactive)
- IC50 [15]: 8.02 µM (active)
- EC50 [16]: 15.9 µM (active)
- IC50 [17]: 4.29 µM (active)
- AC50 [18]: 56.2 µM (inconclusive)
- IC50 [19]: 25.6 µM (inactive)
- EC50 [20]: 15.4 µM (active)
- AC50 [21]: 0.267 µM (active)
